Results: patent US20230102554A1 (GB002, INC., priority 2019, published 2023)

Assays:
[1] = target: T1, Human PDGFRα, cytoplasmic domain (GST-PDGFRα) (Homo sapiens, UniProt P16234); experiment: Human PDGFRα biochemical inhibition assay (off-chip Mobility Shift Assay)
T1 construct: made in house

[2] = target: T2, Human PDGFRβ, cytoplasmic domain (GST-PDGFRβ) (Homo sapiens, UniProt P09619); experiment: Human PDGFRβ biochemical inhibition assay (off-chip Mobility Shift Assay)
T2 construct: made in house
T2 sequence (P09619 with tags, fused parts or gaps): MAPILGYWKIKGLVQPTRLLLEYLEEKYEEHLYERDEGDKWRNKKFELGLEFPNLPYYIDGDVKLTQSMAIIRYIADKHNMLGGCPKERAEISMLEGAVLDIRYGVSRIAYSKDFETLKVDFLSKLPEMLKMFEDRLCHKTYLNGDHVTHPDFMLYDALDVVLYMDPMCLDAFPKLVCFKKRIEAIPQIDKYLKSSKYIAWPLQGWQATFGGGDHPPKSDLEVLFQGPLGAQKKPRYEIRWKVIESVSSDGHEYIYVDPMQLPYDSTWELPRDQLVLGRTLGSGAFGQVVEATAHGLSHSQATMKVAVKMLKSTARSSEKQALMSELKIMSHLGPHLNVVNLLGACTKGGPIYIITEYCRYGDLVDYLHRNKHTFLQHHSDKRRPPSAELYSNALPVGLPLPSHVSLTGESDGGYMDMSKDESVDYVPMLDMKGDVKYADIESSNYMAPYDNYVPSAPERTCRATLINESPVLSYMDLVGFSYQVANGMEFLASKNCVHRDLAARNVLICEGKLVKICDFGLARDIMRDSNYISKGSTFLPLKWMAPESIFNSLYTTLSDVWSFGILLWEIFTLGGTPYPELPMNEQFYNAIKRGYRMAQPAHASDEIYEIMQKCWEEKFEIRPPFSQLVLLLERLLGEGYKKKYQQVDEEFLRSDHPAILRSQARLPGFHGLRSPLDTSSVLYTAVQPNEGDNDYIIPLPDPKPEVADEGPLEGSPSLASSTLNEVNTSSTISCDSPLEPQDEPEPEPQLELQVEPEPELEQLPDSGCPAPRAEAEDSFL
Protocol: Human PDGFRβ Biochemical Inhibition Assay
The compounds described herein were tested for the ability to inhibit activity of PDGFRβ which was achieved via use of an off-chip Mobility Shift Assay (MSA). Human PDGFRβ, cytoplasmic domain [557-1106 (end) amino acids of accession number NP_002600.1 (SEQ ID NO: 3)] was expressed as N-terminal GST-fusion protein (88 kDa) using baculovirus expression system (SEQ ID NO: 4). GST-PDGFRβ was purified by using glutathione sepharose chromatography. Test compounds were dissolved in and diluted with dimethylsulfoxide (DMSO) to achieve 1 mM concentration. Then the solution was further diluted 25-fold with assay buffer to make the final test compound solution. The reference compound, Staurosporine, used as the assay positive control was prepared similarly. The 4× compound solution/substrate (CSKtide, 1000 nM)/ATP (Km ATP)/Mg Metal (5 mM) was prepared with kit buffer (20 mM HEPES, 0.01% Triton X-100, 5 mM DTT, pH 7.5), and 2× kinase solution was prepared with assay buffer (20 mM HEPES, 0.01% Triton X-100, 1 mM DTT, pH 7.5). The 5 μL of 4× compound solution, […] of 4× Substrate/ATP/Metal solution, and […] of 2× kinase solution were mixed and incubated in a well of polypropylene 384 well microplate for 1 hour at room temperature. […] of Termination Buffer (QuickScout Screening Assist MSA; Carna Biosciences) was added to the well. The reaction mixture was applied to LabChip™ system (Perkin Elmer), and the product and substrate peptide peaks were separated and quantitated. The kinase reaction was evaluated by the product ratio calculated from peak heights of product(P) and substrate(S) peptides (P/(P+S)). The readout value of reaction control (complete reaction mixture) was set as a 0% inhibition, and the readout value of background (Enzyme(−)) was set as a 100% inhibition, then the percent inhibition of each test solution was calculated.
With respect to PDGFRβ activity: “+++” denotes an IC50 of less than 300 nM; “++” denotes an IC50 of from 300 nM to less than 1000 nM; and “+” denotes an IC50 of 1000 nM or more.

T1 sequence (P16234 550-1089 T674I): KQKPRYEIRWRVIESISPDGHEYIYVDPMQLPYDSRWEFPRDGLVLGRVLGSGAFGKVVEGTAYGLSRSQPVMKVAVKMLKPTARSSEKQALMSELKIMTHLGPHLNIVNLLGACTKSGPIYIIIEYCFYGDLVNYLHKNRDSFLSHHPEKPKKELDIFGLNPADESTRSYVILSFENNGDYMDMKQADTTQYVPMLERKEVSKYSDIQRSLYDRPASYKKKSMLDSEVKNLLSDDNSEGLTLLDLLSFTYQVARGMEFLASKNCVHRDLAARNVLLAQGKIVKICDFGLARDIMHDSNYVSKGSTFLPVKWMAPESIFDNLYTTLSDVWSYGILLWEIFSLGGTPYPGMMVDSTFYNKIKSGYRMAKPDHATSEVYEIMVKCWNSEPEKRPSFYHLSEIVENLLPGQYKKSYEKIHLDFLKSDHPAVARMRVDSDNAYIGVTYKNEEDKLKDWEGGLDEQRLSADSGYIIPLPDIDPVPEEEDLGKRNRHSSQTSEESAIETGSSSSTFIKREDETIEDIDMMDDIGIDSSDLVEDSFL

Compound	IC50 [1]	IC50 [2]
CCn1cc2ncc(N[C@@H](C)c3cc(NC(=O)c4cnc5c(c4)CCCO5)ccc3F)nc2n1 [Compound 59, (S)-N-(3-(1-((2-ethyl-2H-pyrazolo[3,4-b]pyrazin-6-yl)amino)ethyl)-4-fluorophenyl)-3,4-dihydro-2H-pyrano[2,3-b] pyridine-6-carboxamide]	< 300 nM	< 300 nM
CCn1cc2ncc(N[C@@H](C)c3cccc(NC(=O)c4cnc5[nH]ncc5c4)c3)nc2n1 [Compound 60, (S)-N-(3-(1-((2-ethyl-2H-pyrazolo[3,4-b]pyrazin-6-yl)amino)ethyl)phenyl)-1H-pyrazolo[3,4-b]pyridine-5-carboxamide]	≥ 1000 nM	≥ 1000 nM
CCn1cc2ncc(N[C@@H](C)c3cccc(NC(=O)c4cnc5[nH]nc(C)c5c4)c3)nc2n1 [Compound 61, (S)-N-(3-(1-((2-ethyl-2H-pyrazolo[3,4-b]pyrazin-6-yl)amino)ethyl)phenyl)-3-methyl-1H-pyrazolo[3,4-b]pyridine-5-carboxamide]	300 to 1000 nM	≥ 1000 nM
CCn1cc2ncc(N[C@@H](C)c3cccc(NC(=O)c4cnc5cnn(C)c5c4)c3)nc2n1 [Compound 62, (S)-N-(3-(1-((2-ethyl-2H-pyrazolo[3,4-b]pyrazin-6-yl)amino)ethyl)phenyl)-1-methyl-1H-pyrazolo[4,3-b]pyridine-6-carboxamide]	300 to 1000 nM	≥ 1000 nM
CCn1cc2ncc(N[C@@H](C)c3cc(NC(=O)c4cnc5ccccc5c4)ccc3F)nc2n1 [Compound 63, (S)-N-(3-(1-((2-ethyl-2H-pyrazolo[3,4-b]pyrazin-6-yl)amino)ethyl)-4-fluorophenyl) quinoline-3-carboxamide]	< 300 nM	< 300 nM
CCn1cc2ncc(N[C@@H](C)c3cccc(NC(=O)c4ccc5c(c4)OCO5)c3)nc2n1 [Compound 64, (S)-N-(3-(1-((2-ethyl-2H-pyrazolo[3,4-b]pyrazin-6-yl)amino)ethyl)phenyl) benzo[d][1,3]dioxole-5-carboxamide]	< 300 nM	300 to 1000 nM
CCn1cc2ncc(N[C@@H](C)c3cccc(NC(=O)c4ccc5c(c4)CCNC5)c3)nc2n1 [Compound 66, (S)-N-(3-(1-((2-ethyl-2H-pyrazolo[3,4-b]pyrazin-6-yl)amino)ethyl)phenyl)-1,2,3,4-tetrahydroisoquinoline-6-carboxamide]	< 300 nM	300 to 1000 nM
C[C@H](Nc1cnc2cnn(C)c2n1)c1cccc(NC(=O)c2ccc3c(c2)COC3=O)c1 [Compound 67, (S)-N-(3-(1-((1-methyl-1H-pyrazolo[3,4-b]pyrazin-6-yl)amino)ethyl)phenyl)-1-oxo-1,3-dihydroisobenzofuran-5-carboxamide]	< 300 nM	< 300 nM
C[C@H](Nc1cnc2cnn(C)c2n1)c1cccc(NC(=O)c2ccc3c(c2)OCCO3)c1 [Compound 68, (S)-N-(3-(1-((1-methyl-1H-pyrazolo[3,4-b]pyrazin-6-yl)amino)ethyl)phenyl)-2,3-dihydrobenzo[b][1,4]dioxine-6-carboxamide]	< 300 nM	< 300 nM
C[C@H](Nc1cnc2cnn(C)c2n1)c1cccc(NC(=O)c2cnc3c(c2)OCCO3)c1 [Compound 69, (S)-N-(3-(1-((1-methyl-1H-pyrazolo[3,4-b]pyrazin-6-yl)amino)ethyl)phenyl)-2,3-dihydro-[1,4]dioxino[2,3-b] pyridine-7-carboxamide]	< 300 nM	< 300 nM
C[C@H](Nc1cnc2cnn(C)c2n1)c1cccc(NC(=O)c2cnc3c(c2)CCCO3)c1 [Compound 70, (S)-N-(3-(1-((1-methyl-1H-pyrazolo[3,4-b]pyrazin-6-yl)amino)ethyl)phenyl)-3,4-dihydro-2H-pyrano[2,3-b] pyridine-6-carboxamide]	< 300 nM	< 300 nM
C[C@H](Nc1cnc2cnn(C)c2n1)c1cccc(NC(=O)c2ccc3c(c2)CCCO3)c1 [Compound 71, (S)-N-(3-(1-((1-methyl-1H-pyrazolo[3,4-b]pyrazin-6-yl)amino)ethyl)phenyl)chromane-6-carboxamide]	< 300 nM	< 300 nM
C[C@H](Nc1cnc2cnn(C)c2n1)c1cccc(NC(=O)c2ccc3c(c2)CCC(=O)O3)c1 [Compound 72, (S)-N-(3-(1-((1-methyl-1H-pyrazolo[3,4-b]pyrazin-6-yl)amino)ethyl)phenyl)-2-oxochromane-6-carboxamide]	< 300 nM	< 300 nM
C[C@H](Nc1cnc2cnn(C)c2n1)c1cccc(NC(=O)c2ccc3ncn(C)c3c2)c1 [Compound 73, (S)-1-methyl-N-(3-(1-((1-methyl-1H-pyrazolo[3,4-b]pyrazin-6-yl)amino)ethyl)phenyl)-1H-benzo[d]imidazole-6-carboxamide]	< 300 nM	< 300 nM
CCn1cnc2ccc(C(=O)Nc3cccc([C@H](C)Nc4cnc5cnn(C)c5n4)c3)cc21 [Compound 74, (S)-1-ethyl-N-(3-(1-((1-methyl-1H-pyrazolo[3,4-b]pyrazin-6-yl)amino)ethyl)phenyl)-1H-benzo[d]imidazole-6-carboxamide]	< 300 nM	< 300 nM
CC1OC(=O)c2ccc(C(=O)Nc3cccc([C@H](C)Nc4cnc5cnn(C)c5n4)c3)cc21 (stereo partly drawn) [Compound 76, 3-methyl-N-(3-((S)-1-((1-methyl-N-pyrazolo[3,4-b]pyrazin-6-yl)amino)ethyl)phenyl)-1-oxo-1,3-dihydroisobenzofuran-5-carboxamide]	< 300 nM	< 300 nM
C[C@H](Nc1cnc2cnn(C)c2n1)c1cccc(NC(=O)c2cnc3ncn(C)c3c2)c1 [Compound 77, (S)-1-methyl-N-(3-(1-((1-methyl-1H-pyrazolo[3,4-b]pyrazin-6-yl)amino)ethyl)phenyl)-1H-imidazo[4,5-b] pyridine-6-carboxamide]	< 300 nM	300 to 1000 nM
C[C@H](Nc1cnc2cnn(C)c2n1)c1cccc(NC(=O)c2ccc3c(c2)SCCN3)c1 [Compound 79, (S)-N-(3-(1-((1-methyl-1H-pyrazolo[3,4-d]pyrazin-6-yl)amino)ethyl)phenyl)-3,4-dihydro-2H-benzo[b] [1,4]thiazine-7-carboxamide]	< 300 nM	< 300 nM
Cc1cncc(C(=O)Nc2cccc([C@H](C)Nc3cnc4ccn(C)c4c3)c2)c1 [Compound 80, (S)-5-methyl-N-(3-(1-((1-methyl-1H-pyrrolo[3,2-b]pyridin-6-yl)amino)ethyl)phenyl)nicotinamide]	300 to 1000 nM	≥ 1000 nM
COc1ccc(Cn2ccc3ncc(N[C@@H](C)c4cccc(NC(=O)c5cncc(C)c5)c4)cc32)cc1OC [Compound 81, (S)-N-(3-(1-((1-(3,4-dimethoxybenzyl)-1H-pyrrolo [3,2-b]pyridin-6-yl)amino)ethyl)phenyl)-5-methylnicotinamide]	≥ 1000 nM	≥ 1000 nM
CCn1ccc2ncc(N[C@@H](C)c3cccc(NC(=O)c4cncc(C)c4)c3)nc21 [Compound 82, (S)-N-(3-(1-((5-ethyl-5H-pyrrolo[2,3-b]pyrazin-3-yl)amino)ethyl)phenyl)-5-methylnicotinamide]	< 300 nM	300 to 1000 nM
Cc1cncc(C(=O)Nc2cccc([C@H](C)Nc3cnc4ccn(CCO)c4n3)c2)c1 [Compound 83, (S)-N-(3-(1-((5-(2-hydroxyethyl)-5H-pyrrolo[2,3-6]pyrazin-3-yl)amino)ethyl)phenyl)-5-methylnicotinamide]	< 300 nM	≥ 1000 nM
COCCn1ccc2ncc(N[C@@H](C)c3cccc(NC(=O)c4cncc(C)c4)c3)nc21 [Compound 84, (S)-N-(3-(1-((5-(2-methoxyethyl)-5H-pyrrolo [2,3-b]pyrazin-3-yl)amino)ethyl)phenyl)-5-methylnicotinamide]	< 300 nM	300 to 1000 nM
Cc1cncc(C(=O)Nc2cccc([C@H](C)Nc3cnc4ccn(CCN5CCOCC5)c4n3)c2)c1 [Compound 85, (S)-5-methyl-N-(3-(1-((5-(2-morpholinoethyl)-5H-pyrrolo [2,3-b]pyrazin-3-yl)amino)ethyl)phenyl)nicotinamide]	≥ 1000 nM	≥ 1000 nM
Cc1cncc(C(=O)Nc2cccc([C@H](C)Nc3cnc4ccn(-c5cnn(C)c5)c4n3)c2)c1 [Compound 86, (S)-5-methyl-N-(3-(1-((5-(1-methyl-1H-pyrazol-4-yl)-5H-pyrrolo[2,3-b]pyrazin-3-yl)amino)ethyl)phenyl) nicotinamide]	< 300 nM	< 300 nM
COc1ccc(-n2ccc3ncc(N[C@@H](C)c4cccc(NC(=O)c5cncc(C)c5)c4)nc32)cc1OC [Compound 87, (S)-N-(3-(1-((5-(3,4-dimethoxyphenyl)-5H-pyrrolo [2,3-b]|pyrazin-3-yl)amino)ethyl)phenyl)-5-methylnicotinamide]	< 300 nM	< 300 nM
